Assay results from publication PMC9866588, “Novel 7-Chloro-4-aminoquinoline-benzimidazole Hybrids as Inhibitors of Cancer Cells Growth: Synthesis, Antiproliferative Activity, in Silico ADME Predictions, and Docking” (Molecules, 2023).
Structures can show the parent of a compound that is named as a salt.

What was measured:
[1] = test system: MCF-7 (human breast adenocarcinoma) cells; test: MTT antiproliferative assay, MCF-7; format: cell-based; conditions: MCF7, 72 h, mean ± SD of three independent experiments
Procedure: (§1) The growth inhibition activity was assessed according to the slightly modified procedure performed at the National Cancer Institute, Developmental Therapeutics Program.
(§2) The examined compounds were dissolved in DMSO (1 × 10^−2 M). The experiments were carried out on seven human tumor cell lines and a normal cell line. The following cell lines were used: HeLa (human cervical adenocarcinoma; purchased from ATCC), CaCo-2 (human colorectal adenocarcinoma), MCF-7 (human breast adenocarcinoma), CCRF-CEM (human acute lymphoblastic leukemia), Hut78 (T-cell lymphoma), THP-1 (acute monocytic leukemia), Burkitt lymphoma (Raji), and MDCK1 (Madine–Darby canine kidney). The MDCK1 cells were used between 24 and 26 passages.
(§3) The adherent cells were cultured in Dulbecco’s modified Eagle medium—DMEM (Gibco, Termo Fisher Scientific Inc., Leicestershire, England, UK), supplemented with 10% heat-inactivated fetal bovine serum (FBS, Gibco, Termo Fisher Scientific Inc., Leicestershire, England, UK), 2 mM glutamine, and 100U/0.1mg penicillin/streptomycin. The cells in suspension were cultured in RPMI 1640 (Gibco, Termo Fisher Scientific Inc., Leicestershire, England, UK) medium, supplemented with 10% FBS (Gibco, Termo Fisher Scientific Inc., Leicestershire, England, UK), 2 mM glutamine, 1 mM sodium pyruvate, and 10 mM HEPES. The cells were grown in a humidified atmosphere under the conditions of 37 °C/5% of CO2 gas in the CO2 incubator (IGO 150 CELLlife^TM, JOUAN, Thermo Fisher Scientific, Waltham, MA, USA).
(§4) The adherent cells (HeLa, CaCo-2, MCF-7, and MDCK-1) were plated in 96-well flat bottom plates (Greiner, Frickenhausen, Austria) at a concentration of 2 × 10^4 cells/mL. The suspension cells (Raji, THP-1, CCRF-CEM and Hut78) were plated in 96-well microtiter plates (Sarstead, Newton, NC, USA) at a concentration of 1 × 10^5 cells/mL. Twenty-four hours later, the cells were treated with test agents in […] and incubated for a further 72 h. The working dilutions were freshly prepared on the day of testing. The solvent was also tested for eventual inhibitory activity by adjusting its concentration to be the same as in the working concentrations. After 72 h of incubation, the cell growth rate was evaluated by performing the MTT assay, which detects dehydrogenase activity in viable cells. For this purpose, upon completion of the incubation period, the growth medium was discarded and 50 μL of MTT was added to each well at a concentration of 5 mg/mL. After four hours of incubation at 37 °C, the water insoluble MTT-formazan crystals were dissolved in 150 μL of dimethyl-sulfoxide (DMSO) for the adherent cells and in 10% SDS with 0.01 mol/L HCl for the cells grown in suspension. The absorbance (OD, optical density) was measured on a microplate reader (iMark, BIO RAD, Hercules, CA, USA) at 595 nm.
(§5) The percentage of live cells was calculated as follows: % = OD (sample) − OD (background)/OD (control) − OD (background) × 100.
(§6) The optical density (OD) of the background for the adherent cells is the OD of the MTT solution and DMSO; the OD (background) for the suspension cells is the OD of the culture medium with MTT and 10% SDS with 0.01 mol/L HCl; the OD (control) is the OD of the cells grown without the tested compounds.
(§7) The calculation of the GI50 value curves and QC analysis was performed using the Excel tools and GraphPadPrism software (La Jolla, CA, USA), v. 5.03. Briefly, individual concentration effect curves are generated by plotting the logarithm of the concentration of the tested compounds (X) vs. the corresponding percent inhibition values (Y) using the least squares fit. The best-fit GI50 values are calculated using log (inhibitor) versus normalized response—variable slope equation, where Y Ľ 100/(1 ţ 10 ((LogIC50 _ X) × HillSlope)). The QC criteria parameters (Z0, S:B, R2, HillSlope) were checked for every GI50 curve.

[2] = test system: MDCK1 (Madine–Darby canine kidney) cells; test: MTT antiproliferative assay, MDCK1; format: cell-based; conditions: Canis lupus familiaris, MDCK1, 72 h, mean ± SD of three independent experiments
Procedure: as §1, §2, §3, §4, §5, §6, §7

[3] = test system: CCRF-CEM (human acute lymphoblastic leukemia) cells; test: MTT antiproliferative assay, CCRF-CEM; format: cell-based; conditions: Homo sapiens, CCRF-CEM; 72 h, MTT, mean ± SD of three independent experiments
Procedure: as §1, §2, §3, §4, §5, §6, §7

[4] = test system: CaCo-2 (human colorectal adenocarcinoma) cells; test: MTT antiproliferative assay, CaCo-2; format: cell-based; conditions: 72 h, mean ± SD of three independent experiments
Procedure: as §1, §2, §3, §4, §5, §6, §7

[5] = test system: Raji (Burkitt lymphoma) cells; test: MTT antiproliferative assay, Raji; format: cell-based, human; conditions: Homo sapiens, Raji; 72 h, MTT, mean ± SD of three independent experiments
Procedure: as §1, §2, §3, §4, §5, §6, §7

[6] = test system: HeLa (human cervical adenocarcinoma) cells; test: MTT antiproliferative assay, HeLa; format: cell-based; conditions: 72 h, mean ± SD of three independent experiments
Procedure: as §1, §2, §3, §4, §5, §6, §7

[7] = test system: THP-1 (acute monocytic leukemia) cells; test: MTT antiproliferative assay, THP-1; format: cell-based, human; conditions: Homo sapiens, THP-1; 72 h, MTT, mean ± SD of three independent experiments; read-out: GI50 THP1
Procedure: as §1, §2, §3, §4, §5, §6, §7

[8] = test system: Hut78 (T-cell lymphoma) cells; test: MTT antiproliferative assay, HuT78; format: cell-based, human; conditions: Homo sapiens, HuT78; 72 h, MTT, mean ± SD of three independent experiments
Procedure: as §1, §2, §3, §4, §5, §6, §7

GI50 [1] [µM] | GI50 [3] [µM] | GI50 [4] [µM] | GI50 [5] [µM] | GI50 [6] [µM] | GI50 [7] [µM] | GI50 [8] [µM] | SMILES | GI50 [2] [µM]
30.2 ± 4.7 | > 50 | 5.9 ± 0.7 | > 100 | 8.2 ± 1.9 | 76.3 ± 0.5 | > 100 | O=c1[nH]cc(F)c(=O)[nH]1 [Compound 5-FU, 5-Fluorouracil, reference compound] | 74 ± 3.1
30.9 ± 2.7 | 39.6 ± 9.2 | 100 | 42.9 ± 8.8 | 21 ± 1.9 | > 100 | 26.2 ± 1.6 | CC(C)NC(=N)c1ccc2[nH]c(-c3ccc(N4CCN(c5ccnc6cc(Cl)ccc56)CC4)cc3)nc2c1 [Compound 8b, 2-(4-(4-(7-chloroquinolin-4-yl)piperazin-1-yl)phenyl)-N-isopropyl-1H-benzo[d]imidazole-5-carboxamidine dihydrochloride] | 58.8 ± 9.8
39.1 ± 5.6 | 20 ± 6.8 | 24.7 ± 6.2 | 8.9 ± 3.3 | 11.1 ± 3.8 | > 100 | 4.1 ± 2 | N=C(N)c1ccc2[nH]c(-c3ccc(C(=O)NCCNc4ccnc5cc(Cl)ccc45)cc3)nc2c1 [Compound 12a, 4-(5-carbamimidoyl-1H-benzo[d]imidazol-2-yl)-N-(2-(7-chloroquinolin-4-ylamino)ethyl)benzamide trihydrochloride] | 21.6 ± 3.2
100 | 56.3 ± 9 | 52 ± 9.1 | 20.8 ± 1.8 | 33.2 ± 5.8 | > 100 | 4.4 ± 1 | O=C(NCCNc1ccnc2cc(Cl)ccc12)c1ccc(-c2nc3cc(C4=NCCN4)ccc3[nH]2)cc1 [Compound 12c, N-(2-(7-chloroquinolin-4-ylamino)ethyl)-4-(5-(4,5-dihydro-1H-imidazol-2-yl)-1H-benzo[d]imidazol-2-yl)benzamide trihydrochloride] | 39.6 ± 2.2
> 100 | > 100 | > 100 | > 100 | > 100 | > 100 | > 100 | N=C(N)c1ccc2[nH]c(-c3cccc(Nc4ccnc5cc(Cl)ccc45)c3)nc2c1 [Compound 5a, 2-(3-(7-chloroquinolin-4-ylamino)phenyl)-1H-benzo[d]imidazole-5-carboximidamide trihydrochloride] | > 100
24.8 ± 2.2 | 25.4 ± 11.5 | 100 | 43.9 ± 16.2 | 41.8 ± 8.4 | 71.3 ± 11.4 | 27.6 ± 4.7 | Clc1ccc2c(N3CCN(c4ccc(-c5nc6cc(C7=NCCN7)ccc6[nH]5)cc4)CC3)ccnc2c1 [Compound 8c, 7-chloro-4-(4-(4-(5-(4,5-dihydro-1H-imidazol-2-yl)-1H-benzo[d]imidazol-2-yl)phenyl)piperazin-1-yl)quinoline dihydrochloride] | 30.1 ± 5
20.7 ± 8.6 | 32.1 ± 3.8 | > 100 | 37.7 ± 8.6 | 36.3 ± 9.6 | > 100 | 20.2 ± 6.1 | N=C(N)c1ccc2[nH]c(-c3ccc(N4CCN(c5ccnc6cc(Cl)ccc56)CC4)cc3)nc2c1 [Compound 8a, 2-(4-(4-(7-chloroquinolin-4-yl)piperazin-1-yl)phenyl)-1H-benzo[d]imidazole-5-carboxamidine dihydrochloride] | 42.7 ± 10.8
100 | 43.3 ± 17.5 | 38.7 ± 12.4 | 12.8 ± 3.7 | 100 | 100 | 5.6 ± 2.7 | CC(C)NC(=N)c1ccc2[nH]c(-c3ccc(C(=O)NCCNc4ccnc5cc(Cl)ccc45)cc3)nc2c1 [Compound 12b, 4-(5-(N-isopropylcarbamimidoyl)-1H-benzo[d]imidazol-2-yl)-N-(2-(7-chloroquinolin-4-ylamino)ethyl)benzamide trihydrochloride] | 42.9 ± 5.1
